For ten compounds, inhibition and Inhibition results are on record in ChEMBL document CHEMBL5442334, “ASAP - In vitro safety pharmacology profile” (2024).

Data set [1] has as its target Adenosine receptor A2a (Homo sapiens) (UniProt P29274). Nature of the data set: SafetyScreen: A2A Human Adenosine GPCR Binding Agonist Radioligand LeadHunter Assay, catalogue number: 4. The note with it: Test compound concentration 10.0 uM.
Data set [2] deals with T1, Endothelin-1 receptor (Homo sapiens) (UniProt P25101).
T1 sequence (whole entry): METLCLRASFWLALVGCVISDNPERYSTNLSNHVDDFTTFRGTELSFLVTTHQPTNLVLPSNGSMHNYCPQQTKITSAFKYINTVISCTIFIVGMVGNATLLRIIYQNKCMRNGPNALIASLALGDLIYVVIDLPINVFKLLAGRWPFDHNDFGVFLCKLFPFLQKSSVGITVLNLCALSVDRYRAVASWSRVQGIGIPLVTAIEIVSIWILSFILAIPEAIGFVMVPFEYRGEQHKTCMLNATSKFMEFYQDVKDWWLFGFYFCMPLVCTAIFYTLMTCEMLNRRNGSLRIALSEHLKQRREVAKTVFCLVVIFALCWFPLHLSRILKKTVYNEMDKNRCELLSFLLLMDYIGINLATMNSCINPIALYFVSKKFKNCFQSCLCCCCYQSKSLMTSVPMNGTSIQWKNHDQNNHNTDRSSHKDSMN
In words: SafetyScreen: ETA Human Endothelin GPCR Binding Agonist Radioligand LeadHunter Assay, catalogue number: 54. The note with it: Test compound concentration 10.0 uM.

The target of data set [3] is Glutamate NMDA receptor (Rattus norvegicus) (UniProt P35439+Q00959+Q00960+Q00961+Q62645+Q8VHN2+Q9R1M7). In words: SafetyScreen: Glutamate (NMDA, Non-Selective) Rat Ion Channel [3H] CGP-39653 Binding LeadHunter Assay, catalogue number: 66. Type of data set: protein-complex assay. The note with it: Test compound concentration 10.0 uM.
For data set [4], the target named is T2, Amine oxidase [flavin-containing] A (Rattus norvegicus, UniProt P21396).
T2 sequence (P21396 whole entry): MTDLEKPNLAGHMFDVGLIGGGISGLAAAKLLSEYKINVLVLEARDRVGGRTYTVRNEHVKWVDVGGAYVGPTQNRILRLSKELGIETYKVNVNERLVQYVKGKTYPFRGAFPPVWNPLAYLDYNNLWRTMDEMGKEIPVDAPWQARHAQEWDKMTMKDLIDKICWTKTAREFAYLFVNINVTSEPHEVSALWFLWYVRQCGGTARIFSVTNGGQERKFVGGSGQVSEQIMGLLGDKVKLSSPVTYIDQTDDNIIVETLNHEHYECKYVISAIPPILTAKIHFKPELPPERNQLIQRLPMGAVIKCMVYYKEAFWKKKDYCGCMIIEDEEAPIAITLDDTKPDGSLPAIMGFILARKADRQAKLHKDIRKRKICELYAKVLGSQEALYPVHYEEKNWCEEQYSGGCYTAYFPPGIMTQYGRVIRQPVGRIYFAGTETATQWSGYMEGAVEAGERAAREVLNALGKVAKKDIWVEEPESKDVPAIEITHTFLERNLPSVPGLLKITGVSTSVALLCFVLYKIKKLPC
Nature of the data set: SafetyScreen: Monoamine Oxidase A (MAO-A) Rat Binding Antagonist Radioligand LeadHunter Assay, catalogue number: 443. The note with it: at 10 µM, test compound concentration 10 uM.

The target of data set [5] is Kappa-type opioid receptor (Homo sapiens) (UniProt P41145). Nature of the data set: SafetyScreen: kappa (KOP) Human Opioid GPCR Binding Agonist Radioligand LeadHunter Assay, catalogue number: 4461. To be noted: Test compound concentration 10.0 uM.
Data set [6] has as its target 5-hydroxytryptamine receptor 2A (Homo sapiens) (UniProt P28223). In words: SafetyScreen: 5-HT2A Human Serotonin GPCR Binding Agonist Radioligand LeadHunter Assay, catalogue number: 471. To be noted: Test compound concentration 10.0 uM.
The target of data set [7] is 5-hydroxytryptamine receptor 2B (Homo sapiens) (UniProt P41595). Nature of the data set: SafetyScreen: 5-HT2B Human Serotonin GPCR [125I](±)DOI Binding Agonist Radioligand LeadHunter Assay, catalogue number: 1333. The note with it: Test compound concentration 10.0 uM.
The target of data set [8] is T3, Androgen receptor (Homo sapiens) (UniProt P10275).
T3 sequence (whole entry): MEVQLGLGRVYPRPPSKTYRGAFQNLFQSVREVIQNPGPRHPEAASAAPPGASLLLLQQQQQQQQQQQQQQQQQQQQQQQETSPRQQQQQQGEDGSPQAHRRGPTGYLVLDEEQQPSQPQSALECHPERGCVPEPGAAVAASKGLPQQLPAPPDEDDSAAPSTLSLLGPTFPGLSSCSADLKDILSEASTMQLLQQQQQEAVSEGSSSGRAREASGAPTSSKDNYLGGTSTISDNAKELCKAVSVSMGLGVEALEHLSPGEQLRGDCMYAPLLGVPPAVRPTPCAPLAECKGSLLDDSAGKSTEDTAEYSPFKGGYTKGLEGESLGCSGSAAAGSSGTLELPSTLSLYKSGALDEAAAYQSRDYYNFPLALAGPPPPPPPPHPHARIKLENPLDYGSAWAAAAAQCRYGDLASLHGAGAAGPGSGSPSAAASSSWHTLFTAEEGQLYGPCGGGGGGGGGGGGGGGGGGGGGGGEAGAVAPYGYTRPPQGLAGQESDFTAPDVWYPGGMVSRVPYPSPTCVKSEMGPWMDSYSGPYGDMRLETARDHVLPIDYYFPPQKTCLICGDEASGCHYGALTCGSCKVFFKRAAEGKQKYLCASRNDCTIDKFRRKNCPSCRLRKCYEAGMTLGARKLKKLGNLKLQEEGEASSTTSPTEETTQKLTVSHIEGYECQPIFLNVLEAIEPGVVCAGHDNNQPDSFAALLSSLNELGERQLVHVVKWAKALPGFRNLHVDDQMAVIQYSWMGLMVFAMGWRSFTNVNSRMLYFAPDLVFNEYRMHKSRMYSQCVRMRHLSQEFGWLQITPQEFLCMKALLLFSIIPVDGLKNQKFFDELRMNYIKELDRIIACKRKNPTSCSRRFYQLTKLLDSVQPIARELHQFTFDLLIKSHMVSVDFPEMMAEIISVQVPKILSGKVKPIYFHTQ
In words: SafetyScreen: AR Human Androgen NHR Binding Agonist Radioligand LeadHunter Assay, catalogue number: 933. The note with it: Test compound concentration 10.0 uM.

Data set [9] concerns the target Vasopressin V1a receptor (Homo sapiens) (UniProt P37288). Nature of the data set: SafetyScreen: V1A Human Vasopressin / Oxytocin GPCR Binding Agonist Radioligand LeadHunter Assay, catalogue number: 159. The note with it: Test compound concentration 10.0 uM.
Data set [10] deals with Voltage-gated sodium channel. Nature of the data set: SafetyScreen: Sodium Ion Channel Site 2 (Non-Selective) Rat Ion Channel [3H] Batrachotoxinin Binding LeadHunter Assay, catalogue number: 169. Type of data set: protein assay. To be noted: at 10 µM, test compound concentration 10 uM.
Data set [11] addresses Sodium-dependent noradrenaline transporter (Homo sapiens) (UniProt P23975). Nature of the data set: SafetyScreen: NET Human Norepinephrine Transporter Binding Antagonist Radioligand LeadHunter Assay, catalogue number: 355. To be noted: Test compound concentration 10.0 uM.
In data set [12] the target is Prostaglandin G/H synthase 1 (Homo sapiens) (UniProt P23219). In words: SafetyScreen: COX1 Human Cyclooxygenase Enzymatic LeadHunter Assay, catalogue number: 4173. Type of data set: functional. To be noted: Test compound concentration 10.0 uM.
Data set [13] deals with Delta-type opioid receptor (Homo sapiens) (UniProt P41143). In words: SafetyScreen: delta (DOP) Human Opioid GPCR Binding Agonist Radioligand LeadHunter Assay, catalogue number: 114. To be noted: Test compound concentration 10.0 uM.
Delta-type opioid receptor (Homo sapiens), sequence (P41143 whole entry): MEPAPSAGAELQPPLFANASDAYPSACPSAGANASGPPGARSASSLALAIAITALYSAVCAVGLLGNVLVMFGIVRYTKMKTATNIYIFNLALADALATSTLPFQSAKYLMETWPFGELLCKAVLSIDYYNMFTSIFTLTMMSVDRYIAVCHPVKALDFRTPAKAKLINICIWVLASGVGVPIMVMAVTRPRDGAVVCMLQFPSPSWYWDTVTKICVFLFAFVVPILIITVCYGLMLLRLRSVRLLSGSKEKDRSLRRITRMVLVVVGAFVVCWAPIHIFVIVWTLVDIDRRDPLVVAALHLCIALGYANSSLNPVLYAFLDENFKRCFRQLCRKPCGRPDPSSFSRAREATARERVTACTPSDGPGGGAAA

Adenosine receptor A2a (Homo sapiens), sequence (P29274 whole entry): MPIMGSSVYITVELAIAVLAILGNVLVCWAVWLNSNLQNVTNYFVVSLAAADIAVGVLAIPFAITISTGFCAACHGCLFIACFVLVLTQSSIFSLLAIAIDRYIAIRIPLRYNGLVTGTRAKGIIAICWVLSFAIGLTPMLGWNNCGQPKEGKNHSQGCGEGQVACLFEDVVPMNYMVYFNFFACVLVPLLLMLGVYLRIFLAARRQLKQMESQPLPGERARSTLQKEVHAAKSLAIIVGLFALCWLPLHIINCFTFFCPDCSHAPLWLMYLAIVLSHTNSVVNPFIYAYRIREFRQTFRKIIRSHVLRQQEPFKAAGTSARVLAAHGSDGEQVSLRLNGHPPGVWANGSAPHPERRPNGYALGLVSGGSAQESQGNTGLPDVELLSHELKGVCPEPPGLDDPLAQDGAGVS
5-hydroxytryptamine receptor 2A (Homo sapiens), sequence (P28223 whole entry): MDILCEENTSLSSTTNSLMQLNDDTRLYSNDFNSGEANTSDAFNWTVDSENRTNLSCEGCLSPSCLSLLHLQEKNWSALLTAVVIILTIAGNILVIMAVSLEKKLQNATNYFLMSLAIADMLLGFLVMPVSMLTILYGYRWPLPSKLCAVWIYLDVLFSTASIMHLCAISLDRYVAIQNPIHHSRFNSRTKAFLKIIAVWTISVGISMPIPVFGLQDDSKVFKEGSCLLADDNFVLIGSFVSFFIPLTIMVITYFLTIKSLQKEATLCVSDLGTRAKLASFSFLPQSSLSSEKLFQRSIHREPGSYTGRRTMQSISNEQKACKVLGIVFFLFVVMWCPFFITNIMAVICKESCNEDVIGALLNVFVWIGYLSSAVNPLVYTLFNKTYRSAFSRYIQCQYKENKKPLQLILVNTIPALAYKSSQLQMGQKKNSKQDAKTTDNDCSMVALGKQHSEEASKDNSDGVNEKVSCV
Sodium-dependent noradrenaline transporter (Homo sapiens), sequence (P23975 whole entry): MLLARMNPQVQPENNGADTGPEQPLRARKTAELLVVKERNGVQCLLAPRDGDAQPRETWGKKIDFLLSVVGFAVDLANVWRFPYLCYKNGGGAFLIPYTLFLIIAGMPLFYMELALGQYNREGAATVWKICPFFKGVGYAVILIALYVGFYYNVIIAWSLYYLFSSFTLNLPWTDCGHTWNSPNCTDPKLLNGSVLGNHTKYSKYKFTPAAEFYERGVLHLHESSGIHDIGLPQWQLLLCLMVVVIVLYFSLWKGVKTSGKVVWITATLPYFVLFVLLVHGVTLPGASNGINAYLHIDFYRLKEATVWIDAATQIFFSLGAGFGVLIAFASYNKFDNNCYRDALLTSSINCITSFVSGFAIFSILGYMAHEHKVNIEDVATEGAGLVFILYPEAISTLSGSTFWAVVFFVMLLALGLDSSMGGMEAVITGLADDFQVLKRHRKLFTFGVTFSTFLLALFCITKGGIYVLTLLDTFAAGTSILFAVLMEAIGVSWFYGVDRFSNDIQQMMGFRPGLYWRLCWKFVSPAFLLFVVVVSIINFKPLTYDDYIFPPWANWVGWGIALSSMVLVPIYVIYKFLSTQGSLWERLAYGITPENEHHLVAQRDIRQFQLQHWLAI
Prostaglandin G/H synthase 1 (Homo sapiens), sequence (P23219 whole entry): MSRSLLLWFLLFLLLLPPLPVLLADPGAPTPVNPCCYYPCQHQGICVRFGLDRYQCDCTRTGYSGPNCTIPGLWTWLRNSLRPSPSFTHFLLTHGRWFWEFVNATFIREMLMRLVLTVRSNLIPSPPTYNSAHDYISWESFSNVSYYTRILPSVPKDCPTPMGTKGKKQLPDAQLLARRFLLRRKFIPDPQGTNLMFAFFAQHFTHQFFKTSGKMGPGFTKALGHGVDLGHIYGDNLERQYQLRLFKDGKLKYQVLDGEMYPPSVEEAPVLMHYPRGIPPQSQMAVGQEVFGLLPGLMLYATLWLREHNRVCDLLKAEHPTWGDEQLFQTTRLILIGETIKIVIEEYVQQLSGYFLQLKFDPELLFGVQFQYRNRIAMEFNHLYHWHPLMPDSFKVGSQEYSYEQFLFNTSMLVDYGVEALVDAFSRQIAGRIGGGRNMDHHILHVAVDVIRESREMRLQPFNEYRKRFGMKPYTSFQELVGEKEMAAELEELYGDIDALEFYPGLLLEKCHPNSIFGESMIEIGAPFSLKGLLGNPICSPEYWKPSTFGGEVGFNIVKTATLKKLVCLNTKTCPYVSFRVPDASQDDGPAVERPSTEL
Kappa-type opioid receptor (Homo sapiens), sequence (P41145 whole entry): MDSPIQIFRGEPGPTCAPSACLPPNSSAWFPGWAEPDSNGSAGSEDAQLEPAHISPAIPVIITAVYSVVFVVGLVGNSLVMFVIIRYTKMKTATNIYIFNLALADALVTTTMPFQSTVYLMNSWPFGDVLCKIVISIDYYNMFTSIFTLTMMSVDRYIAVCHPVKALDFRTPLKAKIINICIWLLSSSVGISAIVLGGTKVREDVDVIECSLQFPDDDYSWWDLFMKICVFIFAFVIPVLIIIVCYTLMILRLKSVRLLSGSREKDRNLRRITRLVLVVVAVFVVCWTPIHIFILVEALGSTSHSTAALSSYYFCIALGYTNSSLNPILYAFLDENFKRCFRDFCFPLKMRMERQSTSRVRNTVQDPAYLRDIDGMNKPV
5-hydroxytryptamine receptor 2B (Homo sapiens), sequence (P41595 whole entry): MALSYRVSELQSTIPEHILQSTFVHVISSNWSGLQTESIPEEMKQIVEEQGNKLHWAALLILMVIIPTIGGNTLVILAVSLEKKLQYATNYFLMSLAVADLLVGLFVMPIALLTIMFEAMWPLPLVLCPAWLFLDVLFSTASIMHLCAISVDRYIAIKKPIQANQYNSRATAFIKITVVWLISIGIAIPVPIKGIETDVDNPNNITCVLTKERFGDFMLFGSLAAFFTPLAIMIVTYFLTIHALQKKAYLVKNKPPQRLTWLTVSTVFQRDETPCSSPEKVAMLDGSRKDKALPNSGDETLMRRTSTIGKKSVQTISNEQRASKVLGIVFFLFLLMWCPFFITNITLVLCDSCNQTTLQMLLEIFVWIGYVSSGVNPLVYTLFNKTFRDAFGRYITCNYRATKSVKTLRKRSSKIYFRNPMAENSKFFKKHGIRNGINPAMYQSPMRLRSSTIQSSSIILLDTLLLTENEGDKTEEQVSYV
Vasopressin V1a receptor (Homo sapiens), sequence (P37288 whole entry, looked up): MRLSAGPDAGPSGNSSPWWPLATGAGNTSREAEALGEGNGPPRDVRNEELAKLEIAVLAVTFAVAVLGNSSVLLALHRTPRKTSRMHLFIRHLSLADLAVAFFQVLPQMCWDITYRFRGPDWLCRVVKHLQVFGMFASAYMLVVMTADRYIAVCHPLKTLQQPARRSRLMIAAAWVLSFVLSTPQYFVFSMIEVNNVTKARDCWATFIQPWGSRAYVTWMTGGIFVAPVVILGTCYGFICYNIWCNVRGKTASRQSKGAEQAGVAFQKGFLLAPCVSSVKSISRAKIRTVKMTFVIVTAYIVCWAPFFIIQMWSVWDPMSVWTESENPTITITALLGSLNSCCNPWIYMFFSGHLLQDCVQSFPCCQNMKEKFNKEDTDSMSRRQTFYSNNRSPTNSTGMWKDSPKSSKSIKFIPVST

A word on the inhibition: it is the drop in the measured response relative to a control, in per cent. One may read the Inhibition as the change of the read-out against control, counted positive when it falls. Take `CC(C)[C@@H](Nc1ncnc2[nH]c(C(=O)N[C@@H]3CCN(C)C3)cc12)c1ccc2c(c1)S(=O)(=O)CCC2`: the inhibition in data set [1] was -4%; in data set [2], -6%; in data set [3] it was 1%; in data set [5], 78%; in [6], 1%; in [7], 6%. Besides, the inhibition in data set [8] is -5%; in data set [9], 6%; in data set [11], -1%; in data set [12], 44%. Besides, the Inhibition amounted to 3% in data set [4] and 16% in data set [10].

Turning to `CNCc1cc(-c2cc3c(N[C@@H](c4ccc5c(c4)S(=O)(=O)CCC5)C(C)C)ncnc3[nH]2)co1`, the inhibition in data set [1] is 21%; in data set [2], -1%; in data set [3] it was -1%; in [13] it was 53%; in [5], 57%; in [6], 29%. For the same compound, the inhibition in data set [8] is 10%; in data set [9] it was 13%; in [11], 39%; in data set [12], -6%. Further, the values for the Inhibition in data set [4] and in [10] were 11% and 19%, respectively.

In the case of `COc1ccc([C@H](Cc2nnn[nH]2)NC(=O)c2ncnc3[nH]ccc23)cc1`, the inhibition was 2% in [2]; 9% in data set [3]; 2% in data set [5]; -4% in data set [6]; -2% in data set [8]; 5% in data set [9]. Moreover, the inhibition is -5% in data set [11] and 17% in data set [12]. In addition, the values for the Inhibition in [4] and in data set [10] were 0% and -3%, respectively.

Regarding `CC(C)[C@@H](Nc1ncnc2[nH]c(-c3cnn(C)c3C#N)cc12)c1ccc2c(n1)OCCO2`, the inhibition in data set [1] was 69%; in [2] it was 5%; in data set [3], 1%; in data set [13], 71%; in data set [5] it was 56%; in data set [6], 14%. For the same compound, the inhibition came out at 40% in data set [7], 12% in [8], 20% in data set [9] and 4% in data set [11]. The Inhibition was determined as 8% in data set [4] and 12% in data set [10].

As to `CC(C)[C@H](Nc1ncnc2[nH]ccc12)c1ccc2c(c1)S(=O)(=O)CCC2`, the inhibition in data set [1] is 11%; in [2], -1%; in data set [3], -1%; in [13], 30%; in data set [5], 84%; in data set [6], 12%. The inhibition in [7] is 54%; in data set [8] it was 0%; in [9] it was 6%; in data set [11], -3%; in data set [12], 85%. Also, the Inhibition is 7% in data set [4] and -5% in data set [10].

As for `CC(C)[C@H](Nc1ncnc2[nH]c(-c3cnn(C)c3C#N)cc12)c1ccc2c(n1)OCCO2`, the inhibition in [1] was determined as 84%; in data set [2] it was 42%; in [3], 2%; in data set [13], 58%; in data set [5] it was 31%; in [6] it was 15%. Further, the inhibition in data set [7] was 18%; in [8] it was -3%; in data set [9], 27%; in [11], 9%. The results for the Inhibition in data set [4] and in data set [10] were 4% and 10%, respectively.

On to `CNC(=O)Cn1cc(-c2cc3c(N[C@@H](c4ccc5c(c4)S(=O)(=O)CCC5)C(C)C)ncnc3[nH]2)cn1`, for which the inhibition was 23% in data set [1]; -4% in [2]; -1% in [3]; 7% in [13]; 21% in data set [5]; 12% in data set [6]. For the same compound, the inhibition in data set [7] is 25%; in data set [8], 0%; in data set [9], 15%; in data set [11], -7%; in data set [12], -8%. In addition, the Inhibition is 8% in [4] and 11% in data set [10].

Consider `Cn1ncc(-c2cc3c(N[C@@H](c4ccc5c(n4)OCCO5)C(C)(C)C)ncnc3[nH]2)c1C#N`, for which the inhibition in [1] was 52%; in [2] it was 9%; in [3], 11%; in data set [13] it was 15%; in data set [5], 33%; in data set [6] it was -2%. The inhibition is -5% in [7], 5% in [8], 57% in data set [9] and 27% in data set [11]. The Inhibition came to 10% in [4] and 34% in [10].

On to `Cc1nn(C)cc1-c1cc2c(N[C@H](c3ccc4c(c3)S(=O)(=O)CCC4)C(C)C)ncnc2[nH]1`, for which the inhibition in data set [1] is 13%; in data set [2], -4%; in data set [3] it was -2%; in data set [13], 16%; in [5], 45%; in data set [6], 51%. Also, the inhibition in data set [7] was 43%; in data set [8], 6%; in [9] it was 14%; in data set [11], -2%. Further, the values for the Inhibition in data set [4] and in [10] were 5% and -1%, respectively.

Consider `C[C@H](C(=O)O)[C@@H](NC(=O)c1ncnc2[nH]ccc12)c1ccc(Br)cc1`, for which the inhibition was -2% in data set [2]; 4% in data set [3]; 2% in [5]; 1% in data set [6]; -4% in [7]; 12% in data set [8]. For the same compound, the inhibition in data set [9] is 62%; in data set [11], -6%; in data set [12], 14%. The Inhibition in data set [4] is -1%; in data set [10], 6%.
